Source: patent US10081624B2, “Heterocyclic compound” (Takeda Pharmaceutical Company Limited, priority 2014, dated 2018)

Key:
[1] = target: T1, HDAC6 enzyme (Homo sapiens, UniProt Q9UBN7); test: HDAC6 enzyme inhibitory assay (HDAC-Glo I/II Assay kit); assay type: biochemical; conditions: 1 μM test compound; for inhibition at 1 µM: read-out: HDAC6 inhibitory rate (%) (1 μM)
T1 construct: prepared by transducing full length HDAC1 and HDAC6 genes into Sf-9 insect cells; GST; purchased SignalChem; host or cells: Sf-9 insect cells
T1 sequence (Q9UBN7 1-1215): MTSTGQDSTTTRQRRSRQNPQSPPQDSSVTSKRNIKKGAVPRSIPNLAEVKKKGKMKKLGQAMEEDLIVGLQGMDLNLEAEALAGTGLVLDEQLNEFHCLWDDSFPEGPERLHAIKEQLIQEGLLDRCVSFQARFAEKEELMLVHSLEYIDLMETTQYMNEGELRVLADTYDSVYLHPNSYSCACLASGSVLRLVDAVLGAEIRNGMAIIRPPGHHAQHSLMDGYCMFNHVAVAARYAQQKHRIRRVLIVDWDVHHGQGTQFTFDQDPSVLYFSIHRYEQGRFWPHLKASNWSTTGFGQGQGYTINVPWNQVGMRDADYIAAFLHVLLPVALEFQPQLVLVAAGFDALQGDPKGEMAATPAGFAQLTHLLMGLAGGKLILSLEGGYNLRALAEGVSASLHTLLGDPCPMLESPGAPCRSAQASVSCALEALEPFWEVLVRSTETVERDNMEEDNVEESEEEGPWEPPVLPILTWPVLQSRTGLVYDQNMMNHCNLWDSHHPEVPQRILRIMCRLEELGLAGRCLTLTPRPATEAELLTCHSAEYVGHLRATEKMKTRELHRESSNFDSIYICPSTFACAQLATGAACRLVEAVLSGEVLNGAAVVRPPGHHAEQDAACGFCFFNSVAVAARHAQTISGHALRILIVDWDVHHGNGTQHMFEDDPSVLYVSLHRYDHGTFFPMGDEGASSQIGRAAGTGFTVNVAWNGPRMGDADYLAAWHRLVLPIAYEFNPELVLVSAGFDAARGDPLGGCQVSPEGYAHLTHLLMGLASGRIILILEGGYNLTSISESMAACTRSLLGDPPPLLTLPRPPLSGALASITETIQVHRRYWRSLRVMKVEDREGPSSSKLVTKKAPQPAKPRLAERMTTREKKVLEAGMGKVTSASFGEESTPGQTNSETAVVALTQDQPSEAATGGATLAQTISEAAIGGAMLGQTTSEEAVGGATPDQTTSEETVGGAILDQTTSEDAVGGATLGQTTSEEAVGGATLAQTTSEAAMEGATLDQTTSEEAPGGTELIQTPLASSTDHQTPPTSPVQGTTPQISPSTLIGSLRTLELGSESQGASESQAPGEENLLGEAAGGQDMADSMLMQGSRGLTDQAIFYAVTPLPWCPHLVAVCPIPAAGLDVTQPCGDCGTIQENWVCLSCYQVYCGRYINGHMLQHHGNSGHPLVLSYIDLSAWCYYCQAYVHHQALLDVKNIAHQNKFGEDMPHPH
How it was run: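 Luminescent HDAC-Glo I/II read-out after 20 min room-temperature reaction with substrate-developer, following a 60 min room-temperature enzyme–compound preincubation. Enzymes: full-length HDAC1 or HDAC6 from Sf-9 cells, GST-purified; buffer pH 7.5 Tris with NaCl, glutathione, 0.01% Tween-20. No-enzyme wells defined 100% inhibition.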

[2] = target: T2, HDAC1 enzyme (Homo sapiens, UniProt Q13547); test: HDAC1 enzyme inhibitory assay (HDAC-Glo I/II Assay kit); assay type: biochemical; conditions: 1 μM test compound; for inhibition at 1 µM: read-out: HDAC1 inhibitory rate (%) (1 μM)
T2 construct: prepared by transducing full length HDAC1 and HDAC6 genes into Sf-9 insect cells; GST; purchased SignalChem; host or cells: Sf-9 insect cells
Description: HDAC1 enzyme and HDAC6 enzyme each prepared by transducing full length HDAC1 and HDAC6 genes into Sf-9 insect cells and purifying by GST affinity column were purchased from SignalChem. Using these enzymes, HDAC1 and/or HDAC6 enzyme inhibitory activities of the compound of the present invention were evaluated. Enzymes were used after preserved at −70° C. HDAC1 or HDAC6 enzyme inhibitory activity of the compound of the present invention was measured using HDAC-Glo™ I/II Assay kit (Promega) according to the following experimental method. The test compound diluted with assay buffer (24 mM Tris-HCl (pH 7.5), 1 mM MgCl2, 0.35 mM KCl, 135 mM NaCl, 0.6 mM Glutathione, 0.01% Tween-20) was added to a 384-well plate by each 2 μL. Then, HDAC1 or HDAC6 enzyme solution diluted with assay buffer was added thereto by each 4 μL, and the plate was incubated at room temperature for 60 min. After incubated, HDAC substrate-Developer solution prepared according to Promega protocol attached to the assay kit was added to the 384-well plate by each 2 μL, and the enzyme reaction was started. After reacting at room temperature for 20 min, luminescence level was measured using plate reader Envision (PerkinElmer). The inhibitory activity of each compound was calculated as a relative activity value when luminescence level in wells without enzyme is considered as 100% inhibition.

T2 sequence (Q13547 whole entry): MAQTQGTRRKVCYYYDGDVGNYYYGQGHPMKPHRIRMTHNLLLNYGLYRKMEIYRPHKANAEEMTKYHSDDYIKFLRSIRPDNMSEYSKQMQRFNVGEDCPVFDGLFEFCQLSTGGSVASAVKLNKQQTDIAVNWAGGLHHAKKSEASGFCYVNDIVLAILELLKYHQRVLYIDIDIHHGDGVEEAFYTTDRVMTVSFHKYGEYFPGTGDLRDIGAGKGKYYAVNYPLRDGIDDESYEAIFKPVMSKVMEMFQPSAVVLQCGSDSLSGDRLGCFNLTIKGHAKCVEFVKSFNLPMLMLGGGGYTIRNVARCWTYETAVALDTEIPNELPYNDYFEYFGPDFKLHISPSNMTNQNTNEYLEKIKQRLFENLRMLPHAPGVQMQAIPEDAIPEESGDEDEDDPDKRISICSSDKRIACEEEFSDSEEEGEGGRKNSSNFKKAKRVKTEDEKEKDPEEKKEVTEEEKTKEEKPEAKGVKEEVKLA

Row | SMILES | inhibition at 1 µM [1] [%] | inhibition at 1 µM [2] [%] | HDAC6 inhibitory rate (%) (1 μM) ([1]; 1 µM) | HDAC6 inhibitory rate (%) (1 μM) [1] | HDAC1 inhibitory rate (%) (1 μM) ([2]; 1 µM)
1 | O=C(NCC1COCCN1C(=O)c1cccnc1)c1ccc(-c2noc(C(F)(F)F)n2)cc1 (centres unmarked) [Example 13, N-((4-(pyridin-3-ylcarbonyl)morpholin-3-yl)methyl)-4-(5-(trifluoromethyl)-1,2,4-oxadiazol-3-yl)benzamide] | 97 | 13 | – | – | –
2 | O=C(NCC1COCCN1C(=O)c1cccc(F)c1)c1ccc(-c2noc(C(F)(F)F)n2)cc1 (centres unmarked) [Example 4, N-((4-(3-fluorobenzoyl)morpholin-3-yl)methyl)-4-(5-(trifluoromethyl)-1,2,4-oxadiazol-3-yl)benzamide] | 100 | 18 | – | – | –
3 | N#Cc1cccc(C(=O)N2CCOC[C@@H]2CNC(=O)c2ccc(-c3noc(C(F)(F)F)n3)cc2)c1 [Example 44, N-(((3S)-4-(3-cyanobenzoyl)morpholin-3-yl)methyl)-4-(5-(trifluoromethyl)-1,2,4-oxadiazol-3-yl)benzamide] | – | 16 | 99 | – | –
4 | O=C(NC[C@H]1COCCN1C(=O)N1CC[C@@H](O)C1)c1ccc(-c2noc(C(F)(F)F)n2)cc1 [Example 275, N-(((3S)-4-(((3R)-3-hydroxypyrrolidin-1-yl)carbonyl)morpholin-3-yl)methyl)-4-(5-(trifluoromethyl)-1,2,4-oxadiazol-3-yl)benzamide] | 85 | 5 | – | – | –
5 | O=C(NCC1COCCN1C(=O)C1CCNC1=O)c1ccc(-c2noc(C(F)(F)F)n2)cc1 (stereo in doubt) [Example 104, N-(((3S)-4-((2-oxopyrrolidin-3-yl)carbonyl)morpholin-3-yl)methyl)-4-(5-(trifluoromethyl)-1,2,4-oxadiazol-3-yl)benzamide] | 57 | 9 | – | – | –
6 | COC[C@@H]1CCCN1C(=O)N1CCOC[C@@H]1CNC(=O)c1ccc(-c2noc(C(F)(F)F)n2)cc1 [Example 273, N-(((3S)-4-(((2S)-2-(methoxymethyl)pyrrolidin-1-yl)carbonyl)morpholin-3-yl)methyl)-4-(5-(trifluoromethyl)-1,2,4-oxadiazol-3-yl)benzamide] | 87 | 3 | – | – | –
7 | N#C[C@@H]1CCCN1C(=O)N1CCOC[C@@H]1CNC(=O)c1ccc(-c2noc(C(F)(F)F)n2)cc1 [Example 285, N-(((3S)-4-(((2S)-2-cyanopyrrolidin-1-yl)carbonyl)morpholin-3-yl)methyl)-4-(5-(trifluoromethyl)-1,2,4-oxadiazol-3-yl)benzamide] | 83 | 3 | – | – | –
8 | Cc1cc(C(=O)N2CCOC[C@@H]2CNC(=O)c2ccc(-c3noc(C(F)(F)F)n3)cc2)n(C)n1 [Example 63, N-(((3S)-4-((1,3-dimethyl-1H-pyrazol-5-yl)carbonyl)morpholin-3-yl)methyl)-4-(5-(trifluoromethyl)-1,2,4-oxadiazol-3-yl)benzamide] | 97 | 14 | – | – | –
9 | O=C(NC[C@@H]1COCCN1C(=O)c1csnn1)c1ccc(-c2noc(C(F)(F)F)n2)cc1 [Example 142, N-(((3R)-4-(1,2,3-thiadiazol-4-ylcarbonyl)morpholin-3-yl)methyl)-4-(5-(trifluoromethyl)-1,2,4-oxadiazol-3-yl)benzamide] | 96 | 12 | – | – | –
10 | Cc1nonc1C(=O)N1CCOC[C@H]1CNC(=O)c1ccc(-c2noc(C(F)(F)F)n2)s1 [Example 264, N-(((3R)-4-((4-methyl-1,2,5-oxadiazol-3-yl)carbonyl)morpholin-3-yl)methyl)-5-(5-(trifluoromethyl)-1,2,4-oxadiazol-3-yl)thiophene-2-carboxamide] | 99 | 48 | – | – | –
11 | O=C(NCC1COCCN1C(=O)c1cccc(-c2ccccc2)c1)c1ccc(-c2noc(C(F)(F)F)n2)cc1 (centres unmarked) [Example 31, N-((4-(biphenyl-3-ylcarbonyl)morpholin-3-yl)methyl)-4-(5-(trifluoromethyl)-1,2,4-oxadiazol-3-yl)benzamide] | 96 | 28 | – | – | –
12 | Cc1oncc1C(=O)N1CCOC[C@@H]1CNC(=O)c1ccc(-c2noc(C(F)(F)F)n2)cn1 [Example 193, N-(((3S)-4-((5-methyl-1,2-oxazol-4-yl)carbonyl)morpholin-3-yl)methyl)-5-(5-(trifluoromethyl)-1,2,4-oxadiazol-3-yl)pyridine-2-carboxamide] | 97 | 33 | – | – | –
13 | CCn1nccc1C(=O)N1CCOCC1CNC(=O)c1ccc(-c2noc(C(F)(F)F)n2)cc1 (stereo in doubt) [Example 106, N-(((3S)-4-((1-ethyl-1H-pyrazol-5-yl)carbonyl)morpholin-3-yl)methyl)-4-(5-(trifluoromethyl)-1,2,4-oxadiazol-3-yl)benzamide] | 98 | 51 | – | – | –
14 | O=C(NCC1COCCN1C(=O)c1cccc(C(F)(F)F)c1)c1ccc(-c2noc(C(F)(F)F)n2)cc1 (centres unmarked) [Example 27, N-((4-(3-(trifluoromethyl)benzoyl)morpholin-3-yl)methyl)-4-(5-(trifluoromethyl)-1,2,4-oxadiazol-3-yl)benzamide] | 99 | 14 | – | – | –
15 | Cn1nc2ccccc2c1C(=O)N1CCOC[C@@H]1CNC(=O)c1ccc(-c2noc(C(F)(F)F)n2)cn1 [Example 184, N-(((3S)-4-((2-methyl-2H-indazol-3-yl)carbonyl)morpholin-3-yl)methyl)-5-(5-(trifluoromethyl)-1,2,4-oxadiazol-3-yl)pyridine-2-carboxamide] | 99 | 77 | – | – | –
16 | Cn1nccc1C(=O)N1CCCC[C@@H]1CNC(=O)c1ccc(-c2noc(C(F)(F)F)n2)cc1 [Example 164, N-(((2R)-1-((1-methyl-1H-pyrazol-5-yl)carbonyl)piperidin-2-yl)methyl)-4-(5-(trifluoromethyl)-1,2,4-oxadiazol-3-yl)benzamide] | 98 | 17 | – | – | –
17 | O=C(NC[C@H]1COCCN1C(=O)c1cccc(OCCO)c1)c1ccc(-c2noc(C(F)(F)F)n2)cc1 [Example 302, N-(((3S)-4-(3-(2-hydroxyethoxy)benzoyl)morpholin-3-yl)methyl)-4-(5-(trifluoromethyl)-1,2,4-oxadiazol-3-yl)benzamide] | 98 | 10 | – | – | –
18 | O=C(NC[C@H]1COCCN1C(=O)N1CCCCC1CO)c1ccc(-c2noc(C(F)(F)F)n2)cc1 (stereo partly drawn) [Example 304, N-(((3S)-4-((2-(hydroxymethyl)piperidin-1-yl)carbonyl)morpholin-3-yl)methyl)-4-(5-(trifluoromethyl)-1,2,4-oxadiazol-3-yl)benzamide] | – | – | – | 99 | 9
19 | O=C(NCC1COCCN1C(=O)C1CCCCC1)c1ccc(-c2noc(C(F)(F)F)n2)cc1 (centres unmarked) [Example 25, N-((4-(cyclohexylcarbonyl)morpholin-3-yl)methyl)-4-(5-(trifluoromethyl)-1,2,4-oxadiazol-3-yl)benzamide] | 102 | 20 | – | – | –
